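Following 48 hours of exposure in 96-well plates, responses at five concentrations were used to interpolate endpoints linearly. GI50 marks 50% less growth. The concentration for full growth arrest is given as TGI.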
Legend:
Experiment in all cases: NCI anticancer screen, dose series, 48 h
[1] = system: HCT-116 colon
[2] = system: 786-0 renal
[3] = system: UACC-62 melanoma
[4] = system: HCC-2998 colon
[5] = system: TK-10 renal
[6] = system: EKVX NSCLC
[7] = system: HS 578T breast
[8] = system: HL-60(TB) leukemia
[9] = system: SF-268 CNS
[10] = system: MDA-MB-435
[11] = system: RXF 393 renal
[12] = system: MOLT-4 leukemia
[13] = system: SK-MEL-5 melanoma
[14] = system: NCI-H23 lung
[15] = system: A549 NSCLC
[16] = system: MALME-3M melanoma
[17] = system: MDA-MB-231 breast
[18] = system: CCRF-CEM leukemia
[19] = system: MCF7 breast
[20] = system: NCI-H522 lung
[21] = system: UO-31 renal
[22] = system: LOX IMVI melanoma
[23] = system: DU-145 prostate
[24] = system: SK-OV-3 ovarian
[25] = system: SF-295 CNS
[26] = system: RPMI-8226 leukemia
[27] = system: IGROV1 ovarian
[28] = system: KM12 colon
[29] = system: SF-539 CNS
[30] = system: SNB-75 CNS
[31] = system: OVCAR-8 ovarian
[32] = system: UACC-257 melanoma
[33] = system: OVCAR-5 ovarian
[34] = system: SK-MEL-2 melanoma
[35] = system: SN12C renal
[36] = system: SR leukemia
[37] = system: PC-3 prostate
[38] = system: NCI-H226 lung
[39] = system: BT-549 breast
[40] = system: HOP-92 NSCLC
[41] = system: M14 melanoma
[42] = system: SW-620 colon
[43] = system: K-562 leukemia
[44] = system: NCI/ADR-RES ovarian
[45] = system: NCI-H460 lung
[46] = system: SNB-19 CNS
[47] = system: HOP-62 NSCLC
[48] = system: HCT-15 colon
[49] = system: OVCAR-3 ovarian
[50] = system: SK-MEL-28 melanoma
[51] = system: HT29 colon
[52] = system: ACHN renal
[53] = system: U251 CNS
[54] = system: COLO 205 colon
[55] = system: A498 renal
[56] = system: OVCAR-4 ovarian
[57] = system: T-47D breast
[58] = system: CAKI-1 renal

COc1ccc(/C=N/C2=C(C#N)C(c3ccccc3)c3c(ccc4ccccc34)O2)cc1 (stereo unspecified)
GI50 [1]: 0.516 µM
TGI [1]: 19.2 µM
GI50 [2]: 4.48 µM
TGI [2]: 38.7 µM
GI50 [3]: 0.711 µM
TGI [3]: > 100 µM
GI50 [4]: 3.81 µM
TGI [4]: 31.5 µM
GI50 [5]: 19.1 µM
TGI [5]: > 100 µM
GI50 [6]: 5.02 µM
TGI [6]: > 100 µM
GI50 [7]: 2.15 µM
TGI [7]: 23.8 µM
GI50 [8]: 0.649 µM
TGI [8]: 6 µM
GI50 [9]: 2.85 µM
TGI [9]: 65.3 µM
GI50 [10]: 0.273 µM
TGI [10]: 0.834 µM
GI50 [11]: 1.49 µM
TGI [11]: 7.19 µM
GI50 [12]: 1.75 µM
TGI [12]: > 100 µM
GI50 [13]: 1.74 µM
TGI [13]: 18.2 µM
GI50 [14]: 3.41 µM
TGI [14]: > 100 µM
GI50 [15]: 1.99 µM
TGI [15]: > 100 µM
GI50 [16]: 0.649 µM
TGI [16]: 40.4 µM
GI50 [17]: 2.5 µM
TGI [17]: 22.8 µM
GI50 [18]: 0.751 µM
TGI [18]: > 100 µM
GI50 [19]: 0.586 µM
TGI [19]: 24.5 µM
GI50 [20]: 0.388 µM
TGI [20]: 37.6 µM
GI50 [21]: 1.09 µM
TGI [21]: 37.7 µM
GI50 [22]: 2.01 µM
TGI [22]: 22.8 µM
GI50 [23]: 3.26 µM
TGI [23]: 18.6 µM
GI50 [24]: 4.95 µM
TGI [24]: > 100 µM
GI50 [25]: 0.482 µM
TGI [25]: 11.8 µM
GI50 [26]: 2.66 µM
TGI [26]: 35.3 µM
GI50 [27]: 0.57 µM
TGI [27]: 39.3 µM
GI50 [28]: 1.16 µM
TGI [28]: 35.4 µM
GI50 [29]: 1.65 µM
TGI [29]: 10.4 µM
GI50 [30]: 0.466 µM
TGI [30]: 4.01 µM
GI50 [31]: 4.07 µM
TGI [31]: > 100 µM
GI50 [32]: 23.4 µM
TGI [32]: > 100 µM
GI50 [33]: 4.53 µM
TGI [33]: 37.7 µM
GI50 [34]: 3.97 µM
TGI [34]: > 100 µM
GI50 [35]: 4.23 µM
TGI [35]: 26.2 µM
GI50 [36]: 0.713 µM
TGI [36]: > 100 µM
GI50 [37]: 1.22 µM
TGI [37]: 18.8 µM
GI50 [38]: 2.17 µM
TGI [38]: 54.8 µM
GI50 [39]: 1.17 µM
TGI [39]: 20.9 µM
GI50 [40]: 1.16 µM
TGI [40]: 18.2 µM
GI50 [41]: 0.459 µM
TGI [41]: 9.66 µM
GI50 [42]: 0.732 µM
TGI [42]: > 100 µM
GI50 [43]: 0.37 µM
TGI [43]: > 100 µM
GI50 [44]: 0.916 µM
TGI [44]: > 100 µM
GI50 [45]: 1.37 µM
TGI [45]: 47.1 µM
GI50 [46]: 2.06 µM
TGI [46]: 56.2 µM
GI50 [47]: 1.77 µM
TGI [47]: 60.1 µM
GI50 [48]: 0.564 µM
TGI [48]: 29 µM
GI50 [49]: 0.464 µM
TGI [49]: 10.2 µM
GI50 [50]: 7.14 µM
TGI [50]: 59.8 µM
GI50 [51]: 0.702 µM
TGI [51]: 15.3 µM
GI50 [52]: 4.09 µM
TGI [52]: 54.4 µM
GI50 [53]: 1.87 µM
TGI [53]: 21.1 µM
GI50 [54]: 2.36 µM
TGI [54]: 21.2 µM
GI50 [55]: 0.594 µM
TGI [55]: 6.18 µM
GI50 [56]: 8.75 µM
TGI [56]: > 100 µM
GI50 [57]: 2.41 µM
TGI [57]: > 100 µM
GI50 [58]: 0.457 µM
TGI [58]: 20.4 µM

Source: PubChem BioAssay (NCI)
